In patent publication US20260242738A1, “ALK5 INHIBITORS FOR EFFICIENT DERIVATION OF MESENCHYMAL STEM CELLS FROM EMBRYONIC STEM CELLS” (SCRIPPS HEALTH, priority 2022, published 2026):
Values joined by “and” are separate entries in the source; they are usually repeats but may differ in a detail not shown here. Equal entries are not always repeated. “Also recorded” adds a separate entry of the source.

What was measured:
Assay type in all cases: cell-based, human
HADC100 ESC = test: Flow cytometry of MSC surface markers after ESC to MSC differentiation with ALK-5 inhibitors; set-up: key to CD90 surface marker expression level / CD105 surface marker expression level / CD34 surface marker expression level / CD45 surface marker expression level / CD73 surface marker expression level: % cells positive relative to isotype control background; conditions: for triple positive for CD73, CD90 and CD105: co-expression analysis; for CD90 surface marker expression level / CD34 surface marker expression level / CD45 surface marker expression level / CD73 surface marker expression level / CD105 surface marker expression level: HADC100 ESC, SB525334 10 μM 5 days, GW788388 5 μM 5 days, ± standard deviation; for CD90 surface marker expression level: in %; for CD34 surface marker expression level / CD45 surface marker expression level / CD73 surface marker expression level / CD105 surface marker expression level: in % (unit assumed); for MSC differentiation / differentiating ES-MSC: overall statement of the discussion
Experimental: An overview of the differentiation process is provided in FIG. 1, panel K. To create cell clusters or embryoid bodies of uniform size, ESCs were removed from CellStart culture using Accutase® for 2-5 minutes until single cells were observed. […] After 24 hours, the cell clusters were suspended at 2.5-3×10^5 cells per ml in ultra-low adherent 6 well plates (Corning) in StemPro-34 serum free medium (ThermoFisher) supplemented with 2 mM L-glutamine (ThermoFisher Scientific), 50 μg/ml Ascorbic acid (Stemcell Technologies, Vancouver, Canada) and 1.8 μl/ml ITS-G (100× Insulin-Transferrin-Selenium; ThermoFisher); termed as “complete SP-34 medium”.
The medium was changed every 2 days by removing cell clusters into 15 ml sterile tubes and permitted to gravity settle for 10 minutes at room temperature. Most of the media was removed using a pipette to leave approximately 300-500 μl of medium. Freshly made medium (with the appropriate ALK5 inhibitor or DMSO) was replaced at the same volumes and well number into new ultra-low adherent plates.
After treatment with the appropriate ALK5 inhibitor, the cell clusters were removed by gravity settling and suspended in complete SP-34 medium supplemented with bFGF 20 ng/ml (without any ALK-5 inhibitor or DMSO) and transferred onto fibronectin (FN) coated (10 μg/ml; Fibronectin from human plasma, Sigma-Aldrich, St. Louis, MO) T75 cm^2 flasks (passage zero (P0)). The emerging cells and remaining cell clusters were exposed to Accutase® for 5-10 minutes, gently triturated and counted. The cells were seeded at […] in T75 FN coated flask (P1) and medium changed every 3-4 days until 80-90% confluence. At this point, the cells were detached using Accutase® for continued culture, screened for surface marker phenotype characterization (flow cytometry), placed into 3D cultures to assess chondrogenic differentiation capacity, or preserved in liquid nitrogen.
Cells were detached using Accutase®, washed and suspended in FACS buffer at a concentration of 0.2×10^6 cells per 100 μl. A panel of CD molecules were used, each with the following fluorochromes: CD34-FITC, CD45-BV510, CD73-APC (BioLegend, San Diego, California) CD90-PE-Cy7, and CD105-BV650 (BD Biosciences, Franklin Lakes, New Jersey). Matching isotype control IgGs with the same fluorochrome conjugates were used for background gating. For compensation of spectral overlap, unstained cells, and individual tubes with each fluorochrome were incubated with Dynabeads to distinguish between positive and negative fluorochrome signals. Data was acquired with the Novocyte flow cytometer (ACEA Biosciences Inc. San Diego, CA) and analyzed using FlowJo software (version 10, FlowJo, LLC, Ashland, OR) to determine percentage positive signal for each molecule relative to isotype background non-specific signal controls.

ES-MSC microspheroids = test: Microspheroid building chamber neo-cartilage formation; conditions: 3 weeks in chamber
Excerpt: Using a microspheroid building block approach, ES-MSC derived from treatment with ALK-5 inhibitor SB525334, as described in Example 1, were used to produce bone and cartilage (osteochondral) tissues. […] The OC tissue unit was implanted into an ex vivo model to develop biphasic tissue with an upper cartilage and lower calcified cartilage layer (FIG. 11, panels J-M). Both upper and lower tissues were Safranin O and collagen type II positive (FIG. 11, panels J-K), while the lower tissue producing calcified neo tissue (FIG. 11, panel L; von Kossa positive) and osteopontin (FIG. 11, panel M).

H9 ES-MSC = test: Pellet culture chondrogenesis, histology and immunohistochemistry; conditions: 3 weeks, Safranin-O, collagen type I and II
Experimental: Monolayer-expanded ES-MSC (passage 2-5) were detached using Accutase® and 0.5×10^6 cells in 0.5 ml of chondrogenic medium were centrifuged at 900 rpm (~770 G) for 5 minutes to form high-density pellets. At least 5-6 pellets, for each ES-MSC condition, were cultured in serum-free chondrogenic medium consisting of Dulbecco's Modified Eagle Medium (Mediatech Inc., Manassas, VA), 1×ITS supplement (Sigma-Aldrich, St. Louis, MO), 100 nM Dexamethasone (Sigma), 1.25 mg/ml human serum albumin (Bayer, Leverkusen, Germany), 100 μM ascorbic acid 2-phosphate (Sigma), 1% penicillin/streptomycin/gentamycin (PSG, Gibco, Carlsbad, CA), and 10 ng/ml TGFβ3 (PeproTech, Rocky Hill, NJ). Pellets for ex vivo implantation were cultured for 3 days before implantation; pellets for histologic or gene expression analysis were maintained in culture for 3 weeks with media changes every 3 to 4 days.
Cell pellets and explants were fixed in Z-Fix (3.7% formaldehyde, Anatech Ltd., Battle Creek, MI), processed for embedding in paraffin, and cut into 4 μm-thick sections. Sections were stained with Safranin-O and Fast Green to visualize glycosaminoglycan distribution in the tissues. Alzarin Red S staining was used to detect the presence of mineralized matrix.
For assessment of collagen types I and II, sections were pretreated with pepsin (Digest-All 3, Thermo Fisher Scientific) for 9 minutes at 37° C. in a humid chamber before incubation at 4° C. for 12 to 16 hours with the following primary antibodies: rabbit anti-human collagen type I antibody (Ab 34710, Abcam, Cambridge, MA) 1 μg/ml; or mouse anti-human collagen type II (II-II6B3, Hybridoma Bank, University of Iowa) 2 μg/ml. For color development, the ImmPRESS secondary DAB (brown) or AP (red) kits (Vector Laboratories, Burlingame, CA) was used. Isotype controls were used to monitor non-specific staining.

HAD ES-MSC = test: Fibrin-ECM hydrogel construct culture on needle array; conditions: 20×10^6 cells per ml, 3 weeks of culture, N=8
Experimental: Monolayer cultured ES-MSC were suspended in a hydrogel wafer composed of collagen II (Innovative Research Inc. Novi, MI), hyaluronate (Supartz FX sodium hyaluronate, Seikagaku Corp. Tokyo, Japan), chondroitin sulfate (Sigma-Aldrich) and fibrin (Baxter Healthcare, Deerfield, IL) at a density of 20×10^6 cells per ml. The fibrinogen and thrombin components were prepared separately. To each fibrinogen component, 2 mg/ml sodium hyaluronate, 2 mg/ml chondroitin sulfate and 6 mg/ml collagen II was added (2× concentration of final). Cells were added to the thrombin component at a density of 40×10^6 cells per ml. Thrombin and fibrinogen components in individual syringes were attached to a Baxter DUO mixing syringe and extruded to form the coagulated constructs. The constructs were either directly implanted into ex vivo cartilage tissue or coagulated in 6 well tissue culture plates for 4 to 8 minutes before 4-6 ml of chondrogenic medium was added. To prevent shrinkage of the constructs during culture, the gels were held on AdminPatch microneedle arrays (AdminMed, Sunnyvale, CA) for the duration of their culture.
Cell pellets and explants were fixed in Z-Fix (3.7% formaldehyde, Anatech Ltd., Battle Creek, MI), processed for embedding in paraffin, and cut into 4 μm-thick sections. Sections were stained with Safranin-O and Fast Green to visualize glycosaminoglycan distribution in the tissues. […]

[1] = N=4, SB431542 10 μM 10 days, listed as SB52
[2] = HADC 100 ES-MSC, SB431542 10 μM 10 days, N=4
[3] = N=4, SB431542 10 μM 10 days, listed as SB43

Cc1cccc(-c2[nH]c(C(C)(C)C)nc2-c2ccc3nccnc3c2)n1 [SB525334]
triple positive for CD73, CD90 and CD105 (HADC100 ESC; HADC 100 ES-MSC): 87±8% | CD90 surface marker expression level (HADC100 ESC; N=4, SB431542 10 μM 10 days): 93.9±7.6 | CD34 surface marker expression level (HADC100 ESC; N=4, SB431542 10 μM 10 days): 1.9 ± 0.9 | CD45 surface marker expression level (HADC100 ESC; N=4, SB431542 10 μM 10 days): 1.5 ± 0.5 | CD73 surface marker expression level (HADC100 ESC; N=4, SB431542 10 μM 10 days): 99.2 ± 1.0 | CD105 surface marker expression level (HADC100 ESC; N=4, SB431542 10 μM 10 days): 85.4±12.2 | CD90 surface marker expression level (HADC100 ESC; [1]): 93.9 ± 7.6 | CD105 surface marker expression level (HADC100 ESC; [1]): 85.4 ± 12.2 | MSC differentiation / differentiating ES-MSC (HADC100 ESC): successfully induced MSC differentiation; also recorded: equally effective | cartilage GAGs staining of neo-cartilage tissue (ES-MSC microspheroids): positive for cartilage GAGs | collagen type II staining of neo-cartilage tissue (ES-MSC microspheroids): positive for collagen type II

NC(=O)c1ccc(-c2nc(-c3ccc4c(c3)OCO4)c(-c3ccccn3)[nH]2)cc1 [SB431542]
CD73 positive cells (HADC100 ESC; HADC 100 ES-MSC): 94±12% and 93.6±11.8% | CD90 positive cells (HADC100 ESC; [2]): 88±10% | CD105 positive cells (HADC100 ESC; [2]): 86±7% | triple positive for CD73, CD90 and CD105 (HADC100 ESC; HADC 100 ES-MSC): 88±8% | CD90 surface marker expression level (HADC100 ESC; N=4, SB431542 10 μM 10 days): 87.6±10.4 | CD34 surface marker expression level (HADC100 ESC; N=4, SB431542 10 μM 10 days): 1.8 ± 0.9 | CD45 surface marker expression level (HADC100 ESC; N=4, SB431542 10 μM 10 days): 1.2 ± 0.5 | CD73 surface marker expression level (HADC100 ESC; N=4, SB431542 10 μM 10 days): 93.6 ± 11.8 | CD105 surface marker expression level (HADC100 ESC; N=4, SB431542 10 μM 10 days): 86.1±6.5 | CD90 surface marker expression level (HADC100 ESC; [3]): 87.6 ± 10.4 | CD105 surface marker expression level (HADC100 ESC; [3]): 86.1 ± 6.5 | MSC differentiation / differentiating ES-MSC (HADC100 ESC): equally effective | cartilage-like tissue formation in high density pellets (H9 ES-MSC): consistently produced cartilage like-tissue | cartilaginous tissue in fibrin-ECM construct (Safranin O fast green) (HAD ES-MSC): production of cartilaginous tissue
